Measured values: patent US20050129618A1, “Drugs for ameliorating itch, rough skin or hypersensitive skin or for whitening via inhibition of the production and release of stem cell factor” (Shiseido Co., ltd., priority 2001, published 2005)

Test system: SCF expression on keratinocyte membranes
Assay: Accelerated SCF expression on keratinocyte membranes by different stimulations
Assay type: cell-based, human
Conditions: chemical stimulation, culturing for 24 hours; FIG. 4
Procedure: After plating 1.5 million keratinocytes on a 10 cm plate and culturing for 72 hours, the cells were stimulated by one of the following: (1) exchanging the medium with PBS(−), irradiating the culture with UVB at 20 mJ/cm^2 and then immediately exchanging the PBS(−) with medium, (2) adding forskolin, or (3) adding theophyllin. After culturing for 24 hours, the cells were collected and then dispersed in 200 μl of 50 mM phosphate buffer solution (pH 7.8)+protease inhibitor solution, and the cells were then disrupted with an ultrasonic disrupter for five 30-second disruption cycles at 4° C. After centrifugation at 10,000 g for 20 minutes at 4° C., the supernatant was further centrifuged at 100,000 g for 60 minutes at 4° C. The obtained pellet was dissolved in 100 μl of 25 mM phosphate buffer solution (pH 6.8)+0.1% Triton-X100 solution and a membrane fraction protein extract was obtained. The protein content of the solution was measured by an established method, and then the SCF amount was assayed to obtain an SCF/protein value.

Cn1c(=O)c2[nH]cnc2n(C)c1=O [theophyllin]
expression of SCF in the cells or on the cell membranes (SCF/protein value of membrane fraction): accelerated expression of SCF
